Several values for one entry are separate records, joined by “and”; a condition that tells them apart may be missing. Equal values may be shown once.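 Cells were grown in 96-well plates and exposed to each compound for 48 hours at five concentrations; endpoints were interpolated linearly between bracketing concentrations, or set to the highest concentration if not reached. GI50: concentration for 50% inhibition of growth. At the TGI there is no net growth.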
How the values were obtained:
Test in all cases: inhibition of tumour cell growth, NCI panel, 48 h
[1] = tested on: MDA-MB-231 breast
[2] = tested on: DU-145 prostate
[3] = tested on: NCI-H23 lung
[4] = tested on: MOLT-4 leukemia
[5] = tested on: RPMI-8226 leukemia
[6] = tested on: HCC-2998 colon
[7] = tested on: SK-OV-3 ovarian
[8] = tested on: HS 578T breast
[9] = tested on: PC-3 prostate
[10] = tested on: NCI/ADR-RES ovarian

SMILES | GI50 [1] | TGI [1] [nM] | GI50 [2] | TGI [2] [nM] | GI50 [3] | TGI [3] [nM] | GI50 [4] | TGI [4] [nM] | GI50 [5] | TGI [5] | GI50 [6] | TGI [6] [nM] | GI50 [7] | TGI [7] | GI50 [8] | TGI [8] | GI50 [9] | TGI [9] [nM] | GI50 [10] | TGI [10] [nM]
O=C(O[C@H]1CN[C@H](C#Cc2cc3ncnc(Nc4ccc(Cc5ccccc5)cc4)c3s2)C1)N1CCOCC1 | 4560 nM | 14200 | 4000 nM | 11000 | 6350 nM | 24900 | 6930 nM | > 25000 | 6470 nM | 24900 nM | 4200 nM | 9100 | 33 nM | > 25000 nM | 3060 nM | > 21700 nM | 8560 nM | > 25000 | 5720 nM | > 23800
COC(=O)c1c2c(c[n+]([O-])c1C)C(=O)C(NCc1ccccc1)=CC2=O | 333 nM | 2270 | 1050 nM | 2250 | 485 nM | 2600 | 412 nM | 2590 | 996 nM | 3790 nM | 604 nM | 2000 | 1980 nM | 4790 nM | 2400 nM | 8130 nM | 274 nM | 1910 | 302 nM | 1370
Oc1ccc(Cl)cc1Cc1cc(Cl)cc(Cc2cc(Cl)ccc2O)c1O | – | 8830 | – | 13000 | – | 6620 | – | 8670 | – | 5490 nM | – | 2790 | – | 8500 nM | – | 7710 nM | – | 7700 | – | 6820
CCCCCCCCCCCCCCCCCC(=O)[O][Sn]([CH2]CCC)([CH2]CCC)[CH2]CCC | 125 nM | 361 | 136 nM | 271 | 127 nM | 287 | 237 nM | – | 139 nM | 602 nM | 139 nM | 279 | 143 nM | 288 nM | 217 nM | 752 nM | 180 nM | 463 | 177 nM | 438
Clc1ccc(N/N=C/c2ccccn2)nc1 | 463 nM | > 100000 | 445 nM | > 100000 | 579 nM | > 100000 | 339 nM | > 50700 | 462 nM | 18700 nM | 422 nM | > 100000 | 508 nM | > 100000 nM | 3390 nM | > 100000 nM | 578 nM | > 100000 | 383 nM | > 100000
CCNC(=O)Nc1ccc(-c2nc3c(c(N4CCOC[C@@H]4C)n2)CCN(C2COC2)C3)cc1 | 392 nM and 267 nM | > 48200 | 562 nM and 435 nM | > 100000 | 690 nM and 512 nM | > 100000 | 521 nM and 911 nM | > 100000 | 286 nM and 218 nM | 49000 nM and > 8490 nM | 748 nM and 398 nM | > 100000 | 148 nM and 131 nM | 1160 nM and 956 nM | 155 nM and 146 nM | 804 nM and 930 nM | 166 nM and 106 nM | – | 2870 nM and 1780 nM | > 100000
Clc1ccc(-c2nc(-c3c[nH]c4ncccc34)cs2)cc1 | > 100000 nM | > 100000 | > 100000 nM | > 100000 | 97700 nM | > 100000 | > 100000 nM | > 100000 | > 100000 nM | > 100000 nM | > 100000 nM | > 100000 | > 100000 nM | > 100000 nM | > 100000 nM | > 100000 nM | > 100000 nM | > 100000 | > 100000 nM | > 100000
C[C@H]1O[C@@H](O[C@H]2[C@@H](O)C[C@H](O[C@H]3[C@@H](O)C[C@H](O[C@H]4CC[C@]5(C)C6C[C@@H](O)[C@]7(C)[C@@H](C8=CC(=O)OC8)CC[C@]7(O)C6CC[C@@H]5C4)O[C@@H]3C)O[C@@H]2C)C[C@H](O)[C@@H]1O (some centres not stated) | 265 nM | 1320 | 32.9 nM | 96.8 | 25.1 nM | 112 | 17.6 nM | 147 | 117 nM | 377 nM | 147 nM | 486 | 82.1 nM | 164 nM | 31.1 nM | 4300 nM | 57.3 nM | 783 | 55.2 nM | 147
NC(=O)Cc1ccccc1Oc1nccc(-c2c(-c3ccc(F)cc3)ncn2C2CCNCC2)n1 | > 25000 nM | > 25000 | > 25000 nM | > 25000 | > 25000 nM | > 25000 | > 25000 nM | > 25000 | > 25000 nM | > 25000 nM | > 25000 nM | > 25000 | > 25000 nM | > 25000 nM | > 9240 nM | > 25000 nM | > 25000 nM | > 25000 | > 25000 nM | > 25000
CCN(CC)CC(O)CNc1ccc(NCC(O)CCl)c2c1C(=O)c1ccccc1C2=O (configuration not stated) | – | 27800 | – | 29300 | – | 18100 | – | 8820 | – | 26600 nM | – | 21600 | – | 39100 nM | – | 31000 nM | – | 19800 | – | 17300
O=C1C(=O)c2ccccc2C=C1[N+](=O)[O-] | – | 66500 | – | > 100000 | – | > 100000 | – | 65400 | – | > 100000 nM | – | > 100000 | – | > 100000 nM | – | > 100000 nM | – | > 100000 | – | 76400
O=C1OCC2=C1C(c1ccccc1)c1cc3c(cc1N2CCO)CCC3 (configuration not stated) | 689 nM | > 25000 | 77.8 nM | 464 | 106 nM | > 9910 | 307 nM | > 25000 | 106 nM | > 25000 nM | 115 nM | 941 | 97 nM | 8730 nM | 73.9 nM | – | 98.6 nM | > 25000 | 52.1 nM | 139
O=Cc1ncc(-c2ccc(C(F)(F)F)cc2)c(NC2CCCCCC2)n1 | > 10000 nM | > 10000 | > 10000 nM | > 10000 | > 10000 nM | > 10000 | > 10000 nM | > 10000 | > 10000 nM | > 10000 nM | > 10000 nM | > 10000 | > 10000 nM | > 10000 nM | > 10000 nM | > 10000 nM | > 10000 nM | > 10000 | > 10000 nM | > 10000
CCOc1ccc(/C=N/Nc2cc(C)nc3ccc(Cl)cc23)cc1 | 1830 nM | 3380 | 1820 nM | 3380 | 1760 nM | 3320 | 1890 nM | 3850 | 1940 nM | 4320 nM | 2190 nM | 3700 | 2860 nM | 7290 nM | 2150 nM | 4670 nM | 1510 nM | 3140 | 1900 nM | 3860

Source: PubChem BioAssay (NCI)
